Source: PMC8640094, “Diaportones A–C: Three New Metabolites From Endophytic Fungus Diaporthe foeniculina BZM-15” (Frontiers in Chemistry, 2021)

Tests used:
MCF-7 (breast cancer) = assay: MTT cytotoxicity assay, MCF-7 cells; assay type: cell-based, human; conditions: Homo sapiens; for inhibition at 1 µM / inhibition at 2 µM / inhibition at 4 µM / inhibition at 8 µM / inhibition at 16 µM / inhibition at 32 µM / inhibition at 64 µM / inhibition at 128 µM: MCF7, 72 h, three replicates, read-out: cell inhibition; for inhibition at 1 µM: MCF-7, c 1.00 μM; for inhibition at 2 µM: MCF-7, c 2.00 μM; for inhibition at 4 µM: MCF-7, c 4.00 μM; for inhibition at 8 µM: MCF-7, c 8.00 μM; for inhibition at 16 µM: MCF-7, c 16.00 μM; for inhibition at 32 µM: MCF-7, c 32.00 μM; for inhibition at 64 µM: MCF-7, c 64.00 μM; for inhibition at 128 µM: MCF-7, c 128.00 μM; for IC50: MCF7, MTT, 72 h, mean ± SD (n = 3)
Protocol: (§1) The cytotoxicity of all compounds against three human tumor cell lines, SF-268 (CNS cancer), MCF-7 (breast cancer), and HepG2 (hepatoma cancer), and normal cell line LX-2 was tested using the MTT assay. […] All cells were seeded into 96-well plates at 5 × 10^4 cells/ml and incubated at 37°C under a 5% CO2 atmosphere for 24 h. Then, the tested compounds were added. After 72 h, MTT solution was added into each well, which was further incubated. The cell-free supernatant was removed and formazan crystals were subsequently dissolved in DMSO. Optical density (OD) was recorded at 490 nm on a microplate reader to calculate the IC50 values.

HepG2 (hepatoma cancer) = assay: MTT cytotoxicity assay, HepG2 cells; assay type: cell-based, human; conditions: Homo sapiens; for inhibition at 1 µM / inhibition at 2 µM / inhibition at 4 µM / inhibition at 8 µM / inhibition at 16 µM / inhibition at 32 µM / inhibition at 64 µM / inhibition at 128 µM: HepG2, 72 h, three replicates, read-out: cell inhibition; for inhibition at 1 µM: HepG2, c 1.00 μM; for inhibition at 2 µM: HepG2, c 2.00 μM; for inhibition at 4 µM: HepG2, c 4.00 μM; for inhibition at 8 µM: HepG2, c 8.00 μM; for inhibition at 16 µM: HepG2, c 16.00 μM; for inhibition at 32 µM: HepG2, c 32.00 μM; for inhibition at 64 µM: HepG2, c 64.00 μM; for inhibition at 128 µM: HepG2, c 128.00 μM; for IC50: HepG2, MTT, 72 h, mean ± SD (n = 3)
Protocol: (§2) The cytotoxicity of all compounds against three human tumor cell lines, SF-268 (CNS cancer), MCF-7 (breast cancer), and HepG2 (hepatoma cancer), and normal cell line LX-2 was tested using the MTT assay. Adriamycin was used as a positive control. All cells were seeded into 96-well plates at 5 × 10^4 cells/ml and incubated at 37°C under a 5% CO2 atmosphere for 24 h. Then, the tested compounds were added. After 72 h, MTT solution was added into each well, which was further incubated. The cell-free supernatant was removed and formazan crystals were subsequently dissolved in DMSO. Optical density (OD) was recorded at 490 nm on a microplate reader to calculate the IC50 values.

SF-268 (CNS cancer) = assay: MTT cytotoxicity assay, SF-268 cells; assay type: cell-based, human; conditions: Homo sapiens; for inhibition at 1 µM / inhibition at 2 µM / inhibition at 4 µM / inhibition at 8 µM / inhibition at 16 µM / inhibition at 32 µM / inhibition at 64 µM / inhibition at 128 µM: SF-268, 72 h, SF268 cells, triplicate values, read-out: cell inhibition; for inhibition at 1 µM: c 1.00 μM; for inhibition at 2 µM: c 2.00 μM; for inhibition at 4 µM: c 4.00 μM; for inhibition at 8 µM: c 8.00 μM; for inhibition at 16 µM: c 16.00 μM; for inhibition at 32 µM: c 32.00 μM; for inhibition at 64 µM: c 64.00 μM; for inhibition at 128 µM: c 128.00 μM; for IC50: SF-268, MTT, 72 h, mean ± SD (n = 3), read-out: IC50 SF268
Protocol: as §2

normal cell line LX-2 = assay: MTT cytotoxicity assay, normal cell line LX-2; assay type: cell-based; conditions: 72 h; for inhibition at 1 µM: LX-2, c 1.00 μM; for inhibition at 1 µM / inhibition at 2 µM / inhibition at 4 µM / inhibition at 8 µM / inhibition at 16 µM / inhibition at 32 µM / inhibition at 64 µM / inhibition at 128 µM: three replicates; for inhibition at 2 µM: LX-2, c 2.00 μM; for inhibition at 4 µM: LX-2, c 4.00 μM; for inhibition at 8 µM: LX-2, c 8.00 μM; for inhibition at 16 µM: LX-2, c 16.00 μM; for inhibition at 32 µM: LX-2, c 32.00 μM; for inhibition at 64 µM: LX-2, c 64.00 μM; for inhibition at 128 µM: LX-2, c 128.00 μM; for IC50: MTT, mean ± SD (n = 3)
Protocol: as §1

SMILES	inhibition at 1 µM (MCF-7 (breast cancer)) [%]	inhibition at 2 µM (MCF-7 (breast cancer)) [%]	inhibition at 4 µM (MCF-7 (breast cancer)) [%]	inhibition at 16 µM (MCF-7 (breast cancer)) [%]	inhibition at 32 µM (MCF-7 (breast cancer)) [%]	inhibition at 64 µM (MCF-7 (breast cancer)) [%]	inhibition at 128 µM (MCF-7 (breast cancer)) [%]	IC50 (MCF-7 (breast cancer)) [µM]	inhibition at 1 µM (HepG2 (hepatoma cancer)) [%]	inhibition at 2 µM (HepG2 (hepatoma cancer)) [%]	inhibition at 4 µM (HepG2 (hepatoma cancer)) [%]	inhibition at 8 µM (HepG2 (hepatoma cancer)) [%]	inhibition at 16 µM (HepG2 (hepatoma cancer)) [%]	inhibition at 32 µM (HepG2 (hepatoma cancer)) [%]	inhibition at 64 µM (HepG2 (hepatoma cancer)) [%]	inhibition at 128 µM (HepG2 (hepatoma cancer)) [%]	IC50 (HepG2 (hepatoma cancer)) [µM]	inhibition at 1 µM (SF-268 (CNS cancer)) [%]	inhibition at 2 µM (SF-268 (CNS cancer)) [%]	inhibition at 4 µM (SF-268 (CNS cancer)) [%]	further results
C/C(=C\C=C\[C@]1(C)OC(=O)[C@@H](C)[C@@H]1O)[C@H](C)O [compound 2, colletolides A]	1.03	2.87	2.35	17.4	22.6	53.1	70.1	> 40	2.57	3.48	7.34	14.6	19.4	27.5	60.5	75	> 40	3.14	4.41	8.45	inhibition at 8 µM (MCF-7 (breast cancer)): 12.7%; inhibition at 8 µM (SF-268 (CNS cancer)): 9.12%; inhibition at 16 µM (SF-268 (CNS cancer)): 19.4%; inhibition at 32 µM (SF-268 (CNS cancer)): 27.1%; inhibition at 64 µM (SF-268 (CNS cancer)): 51.5%; inhibition at 128 µM (SF-268 (CNS cancer)): 70.1%; IC50 (SF-268 (CNS cancer)): > 40 µM; inhibition at 1 µM (normal cell line LX-2): 4.42%; inhibition at 2 µM (normal cell line LX-2): 5.31%; inhibition at 4 µM (normal cell line LX-2): 11.3%; inhibition at 8 µM (normal cell line LX-2): 19.3%; inhibition at 16 µM (normal cell line LX-2): 24.4%; inhibition at 32 µM (normal cell line LX-2): 40.4%; inhibition at 64 µM (normal cell line LX-2): 79.4%; inhibition at 128 µM (normal cell line LX-2): 80.5%; IC50 (normal cell line LX-2): > 40 µM
CC(C)[C@@H](C)/C=C/[C@@H](C)C1CCC2C3=CC(=O)OC4=CC(=O)CC[C@]4(C)C3CC[C@@]21C (some centres unmarked) [compound 9, fortisterol]	6.87	14.1	17.4	31.4	43.2	76.1	86.4	> 40	5.37	11.1	15.3	20.5	31.6	48.2	75.7	89.3	> 40	8.97	14.6	19.2	inhibition at 8 µM (MCF-7 (breast cancer)): 21.5%; inhibition at 8 µM (SF-268 (CNS cancer)): 24.9%; inhibition at 16 µM (SF-268 (CNS cancer)): 30.3%; inhibition at 32 µM (SF-268 (CNS cancer)): 45.1%; inhibition at 64 µM (SF-268 (CNS cancer)): 80.5%; inhibition at 128 µM (SF-268 (CNS cancer)): 82.4%; IC50 (SF-268 (CNS cancer)): > 40 µM; inhibition at 1 µM (normal cell line LX-2): 9.02%; inhibition at 2 µM (normal cell line LX-2): 13.6%; inhibition at 4 µM (normal cell line LX-2): 18.5%; inhibition at 8 µM (normal cell line LX-2): 25.5%; inhibition at 16 µM (normal cell line LX-2): 31.9%; inhibition at 32 µM (normal cell line LX-2): 44.7%; inhibition at 64 µM (normal cell line LX-2): 79.3%; inhibition at 128 µM (normal cell line LX-2): 82.5%; IC50 (normal cell line LX-2): > 40 µM
CCCC(O)C1=C(C)C(=O)C(C)C1 (centres unmarked) [compound 3, diaportone B]	8.01	13.3	14.8	30.5	41.4	62.7	76.1	> 40	8.12	14.3	19.2	25.3	30.6	42.1	54.8	75.3	> 40	6.32	12	19.4	inhibition at 8 µM (MCF-7 (breast cancer)): 21.4%; inhibition at 8 µM (SF-268 (CNS cancer)): 21.4%; inhibition at 16 µM (SF-268 (CNS cancer)): 27.3%; inhibition at 32 µM (SF-268 (CNS cancer)): 28.5%; inhibition at 64 µM (SF-268 (CNS cancer)): 34.1%; inhibition at 128 µM (SF-268 (CNS cancer)): 59.4%; IC50 (SF-268 (CNS cancer)): > 40 µM; inhibition at 1 µM (normal cell line LX-2): 6.32%; inhibition at 2 µM (normal cell line LX-2): 5.31%; inhibition at 4 µM (normal cell line LX-2): 11.4%; inhibition at 8 µM (normal cell line LX-2): 20.6%; inhibition at 16 µM (normal cell line LX-2): 28.3%; inhibition at 32 µM (normal cell line LX-2): 34.8%; inhibition at 64 µM (normal cell line LX-2): 50.5%; inhibition at 128 µM (normal cell line LX-2): 70.2%; IC50 (normal cell line LX-2): > 40 µM
COc1cccc2c1C(=O)c1c(O)c3c(c(O)c1C2=O)C[C@@](O)(C(=O)CO)C[C@@H]3O[C@H]1C[C@H](N)[C@H](O)[C@H](C)O1 [Adriamycin, reference compound]	27.9	51.4	66.5	97	97.4	97.1	97.4	1.5 ± 0.01	33.1	48.5	66.2	74.1	89.4	86.2	96.3	95.3	2.2 ± 0.03	35.4	51.1	69.9	inhibition at 8 µM (SF-268 (CNS cancer)): 76%; inhibition at 16 µM (SF-268 (CNS cancer)): 90.9%; inhibition at 32 µM (SF-268 (CNS cancer)): 96.4%; inhibition at 64 µM (SF-268 (CNS cancer)): 96.5%; inhibition at 128 µM (SF-268 (CNS cancer)): 95.1%; IC50 (SF-268 (CNS cancer)): 1.9 ± 0.03 µM; inhibition at 1 µM (normal cell line LX-2): 8.56%; inhibition at 2 µM (normal cell line LX-2): 9.36%; inhibition at 4 µM (normal cell line LX-2): 14.5%; inhibition at 8 µM (normal cell line LX-2): 26.4%; inhibition at 16 µM (normal cell line LX-2): 43.4%; inhibition at 32 µM (normal cell line LX-2): 56.2%; inhibition at 64 µM (normal cell line LX-2): 77.2%; inhibition at 128 µM (normal cell line LX-2): 98.1%; IC50 (normal cell line LX-2): > 40 µM
CC(=O)OC(C)C(C)=CC=CC1(C)OC(=O)C(C)C1O (centres unmarked) [compound 1, diaportone A]	7.76	12.6	17.8	29.1	32.5	78.1	83.4	> 40	8.32	14.4	21.3	23.1	30.1	46.5	71.3	80.3	> 40	2.75	3.91	3.45	inhibition at 8 µM (MCF-7 (breast cancer)): 23.1%; inhibition at 8 µM (SF-268 (CNS cancer)): 6.33%; inhibition at 16 µM (SF-268 (CNS cancer)): 15.7%; inhibition at 32 µM (SF-268 (CNS cancer)): 22.2%; inhibition at 64 µM (SF-268 (CNS cancer)): 37.9%; inhibition at 128 µM (SF-268 (CNS cancer)): 69.3%; IC50 (SF-268 (CNS cancer)): > 40 µM; inhibition at 1 µM (normal cell line LX-2): 3.47%; inhibition at 2 µM (normal cell line LX-2): 5.08%; inhibition at 4 µM (normal cell line LX-2): 9.11%; inhibition at 8 µM (normal cell line LX-2): 8.98%; inhibition at 16 µM (normal cell line LX-2): 15.6%; inhibition at 32 µM (normal cell line LX-2): 31.7%; inhibition at 64 µM (normal cell line LX-2): 45.1%; inhibition at 128 µM (normal cell line LX-2): 70.3%; IC50 (normal cell line LX-2): > 40 µM
